Laboratory results taken from ChEMBL document CHEMBL3286349 (Bioorg Med Chem Lett, 2014).
Values belong to the compound of their own block, whether it stands above or below them. Calls of active or inactive are those of the source. The calls are words filed in the database; no cut-off is given here. Residues, ends and D or L forms follow the SMILES beside them.

Experiments:
[1] = biological target: T1, Peroxisome proliferator-activated receptor alpha (Rattus norvegicus) (UniProt P37230); test: Agonist activity at PPARalpha in lipid loaded rat HII4E cells assessed as induction of fatty acid uptake at 1 uM after 24 hrs by flow cytometry analysis relative to control; format: cell-based
T1 sequence (whole entry): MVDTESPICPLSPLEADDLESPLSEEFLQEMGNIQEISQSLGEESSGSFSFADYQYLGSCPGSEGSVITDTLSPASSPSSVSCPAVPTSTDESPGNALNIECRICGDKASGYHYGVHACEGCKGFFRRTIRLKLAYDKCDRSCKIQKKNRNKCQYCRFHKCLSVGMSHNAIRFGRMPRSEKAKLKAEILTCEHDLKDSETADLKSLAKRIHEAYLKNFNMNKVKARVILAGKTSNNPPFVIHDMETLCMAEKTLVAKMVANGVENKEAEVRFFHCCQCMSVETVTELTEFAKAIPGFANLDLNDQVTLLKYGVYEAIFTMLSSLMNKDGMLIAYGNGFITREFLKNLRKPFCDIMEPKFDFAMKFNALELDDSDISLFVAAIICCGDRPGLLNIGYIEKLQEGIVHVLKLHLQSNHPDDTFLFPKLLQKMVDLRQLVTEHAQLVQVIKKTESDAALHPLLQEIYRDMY

[2] = biological target: T2, Peroxisome proliferator-activated receptor alpha (Homo sapiens, UniProt Q07869); test: Binding affinity to PPARalpha LBD (unknown origin) by surface plasmon resonance assay
T2 sequence (Q07869 whole entry): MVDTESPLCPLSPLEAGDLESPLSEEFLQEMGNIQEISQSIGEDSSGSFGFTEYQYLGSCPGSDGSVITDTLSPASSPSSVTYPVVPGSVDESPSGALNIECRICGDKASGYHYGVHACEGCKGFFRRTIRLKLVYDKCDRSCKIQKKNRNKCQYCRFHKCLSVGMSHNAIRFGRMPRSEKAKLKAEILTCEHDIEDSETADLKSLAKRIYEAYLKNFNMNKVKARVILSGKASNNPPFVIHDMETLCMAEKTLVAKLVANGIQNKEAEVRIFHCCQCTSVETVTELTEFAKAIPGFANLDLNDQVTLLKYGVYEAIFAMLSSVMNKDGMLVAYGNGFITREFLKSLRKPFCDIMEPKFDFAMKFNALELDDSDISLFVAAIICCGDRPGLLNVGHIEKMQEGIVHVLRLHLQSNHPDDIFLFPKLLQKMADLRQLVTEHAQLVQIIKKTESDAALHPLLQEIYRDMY

[3] = biological target: T1, Peroxisome proliferator-activated receptor alpha (Rattus norvegicus); test: Agonist activity at PPARalpha in lipid loaded rat HII4E cells assessed as reduction of intracellular cholesterol level at 100 uM after 24 hrs relative to control; format: cell-based; design: scale not given: the % may be the effect or the level left
[4] = biological target: T1, Peroxisome proliferator-activated receptor alpha (Rattus norvegicus); test: Agonist activity at PPARalpha in lipid loaded rat HII4E cells assessed as increase of acyl-CoA synthetase gene expression at 100 uM after 24 hrs by qPCR analysis relative to control; format: cell-based
[5] = biological target: T1, Peroxisome proliferator-activated receptor alpha (Rattus norvegicus); test: Agonist activity at PPARalpha in lipid loaded rat HII4E cells assessed as reduction of intracellular triglyceride level at 500 uM after 24 hrs relative to control; format: cell-based; design: scale not given: the % may be the effect or the level left
[6] = biological target: T3, Peroxisome proliferator-activated receptor alpha (Homo sapiens) (UniProt Q07869); test: Agonist activity at PPARalpha (unknown origin) expressed in CHOK1 cells assessed as induction of transactivation activity at 100 uM after 24 hrs by luciferase reporter gene assay relative to control; format: cell-based; details: CHO-K1
T3 sequence (whole entry): T2 sequence (Q07869 whole entry)

[7] = biological target: T1, Peroxisome proliferator-activated receptor alpha (Rattus norvegicus); test: Agonist activity at PPARalpha in lipid loaded rat HII4E cells assessed as increase of CPT1 gene expression at 500 uM after 24 hrs by qPCR analysis relative to control; format: cell-based
[8] = biological target: T1, Peroxisome proliferator-activated receptor alpha (Rattus norvegicus); test: Agonist activity at PPARalpha in lipid loaded rat HII4E cells assessed as reduction of intracellular cholesterol level after 24 hrs; format: cell-based
[9] = biological target: T3, Peroxisome proliferator-activated receptor alpha (Homo sapiens); test: Agonist activity at PPARalpha (unknown origin) expressed in CHOK1 cells assessed as induction of transactivation activity at 500 uM after 24 hrs by luciferase reporter gene assay relative to control; format: cell-based; details: CHO-K1
[10] = biological target: T1, Peroxisome proliferator-activated receptor alpha (Rattus norvegicus); test: Agonist activity at PPARalpha in lipid loaded rat HII4E cells assessed as reduction of intracellular triglyceride level at 100 uM after 24 hrs relative to control; format: cell-based; design: scale not given: the % may be the effect or the level left
[11] = biological target: T1, Peroxisome proliferator-activated receptor alpha (Rattus norvegicus); test: Agonist activity at PPARalpha in lipid loaded rat HII4E cells assessed as induction of transcriptional activity at 500 uM after 24 hrs by qPCR analysis relative to control; format: cell-based
[12] = Reduction of intracellular triglyceride level in lipid loaded rat HII4E cells expressing PPARalpha siRNA at 10 to 500 uM after 24 hrs; format: functional, cell-based
[13] = biological target: T2, Peroxisome proliferator-activated receptor alpha; test: Agonist activity at PPARalpha LBD (unknown origin) assessed as induction of PGC1alpha co-activator activity by TR-FRET analysis
[14] = biological target: T1, Peroxisome proliferator-activated receptor alpha (Rattus norvegicus); test: Agonist activity at PPARalpha in lipid loaded rat HII4E cells assessed as reduction of intracellular cholesterol level at 500 uM after 24 hrs relative to control; format: cell-based; design: scale not given: the % may be the effect or the level left
[15] = biological target: T1, Peroxisome proliferator-activated receptor alpha (Rattus norvegicus); test: Agonist activity at PPARalpha in lipid loaded rat HII4E cells assessed as increase of FATP4 gene expression at 500 uM after 24 hrs by qPCR analysis relative to control; format: cell-based
[16] = biological target: T1, Peroxisome proliferator-activated receptor alpha (Rattus norvegicus); test: Agonist activity at PPARalpha in lipid loaded rat HII4E cells assessed as increase of ACOX gene expression at 500 uM after 24 hrs by qPCR analysis relative to control; format: cell-based
[17] = Reduction of intracellular cholesterol level in lipid loaded rat HII4E cells expressing PPARgamma siRNA after 24 hrs; format: functional, cell-based
[18] = biological target: T1, Peroxisome proliferator-activated receptor alpha (Rattus norvegicus); test: Agonist activity at PPARalpha in lipid loaded rat HII4E cells assessed as increase of acyl-CoA synthetase gene expression at 500 uM after 24 hrs by qPCR analysis relative to control; format: cell-based
[19] = biological target: T1, Peroxisome proliferator-activated receptor alpha (Rattus norvegicus); test: Agonist activity at PPARalpha in lipid loaded rat HII4E cells assessed as induction of fatty acid uptake at 100 to 500 uM after 24 hrs by flow cytometry analysis relative to control; format: cell-based
[20] = biological target: T1, Peroxisome proliferator-activated receptor alpha (Rattus norvegicus); test: Agonist activity at PPARalpha in lipid loaded rat HII4E cells assessed as induction of transcriptional activity at 100 uM after 24 hrs by qPCR analysis relative to control; format: cell-based
[21] = Reduction of intracellular triglyceride level in lipid loaded rat HII4E cells expressing PPARgamma siRNA after 24 hrs; format: functional, cell-based
[22] = biological target: T1, Peroxisome proliferator-activated receptor alpha (Rattus norvegicus); test: Agonist activity at PPARalpha in lipid loaded rat HII4E cells assessed as increase of FATP4 gene expression at 100 uM after 24 hrs by qPCR analysis relative to control; format: cell-based
[23] = Reduction of intracellular cholesterol level in lipid loaded rat HII4E cells expressing PPARalpha siRNA at 10 to 500 uM after 24 hrs; format: functional, cell-based

- Activity [1]: Active
SMILES: CC(C)(Sc1ccc(CCN(CCCCC2CCCCC2)C(=O)NC2CCCCC2)cc1)C(=O)O

- Kd [2]: 120 µM
- Activity [3]: 14%
- fold change (FC) [4]: 1.4
- Activity [5]: 16%
- Activity [6]: 53%
- fold change (FC) [7]: 1.6
- Activity [8]: Dose-dependent effect
- Activity [9]: 62%
- Activity [10]: 14%
- fold change (FC) [11]: 1.9
- EC50 [13]: 83.4 µM
- Activity [14]: 21%
- fold change (FC) [15]: 1.7
- fold change (FC) [16]: 1.4
- fold change (FC) [18]: 1.5
- fold change (FC) [19]: 1.2
- fold change (FC) [20]: 1.8
- fold change (FC) [22]: 1.6
SMILES: N[C@@H](Cc1c[nH]c2ccccc12)C(=O)N[C@@H](CCC(=O)O)C(=O)O (H-Trp-Glu-OH)
- Activity [12]: inactive
- Activity [17]: Dose-dependent effect
- Activity [21]: Dose-dependent effect
- Activity [23]: inactive
